Structures can show the parent of a compound that is named as a salt.

The subject of data set [1] is first lung cancer tumor organoid line. Briefly: high throughput tumor organoid drug screen, per-organoid viability histogram. The following applies: 10,000 nM dose; for viability at 10 µM: Homo sapiens, read-out: mean viability for all organoids in the plot, caspase 3/7 readout. How it is done: (§1) TOs were dissociated as described above and resuspended in a 30:70% mix of GFR Matrigel:growth media at a concentration of 100 cells/μl. The solution was added to 384-well assay plates (Corning) at 20 μl per well for a final concentration of 2,000 cells per well. Assay plates were covered with a Breathe-Easy sealing membrane (Sigma Aldrich) to prevent evaporation. TOs were grown for 72 hours before drug addition. Drugs were prepared in growth media with 2.5 μM Caspase-3/7 Green Apoptosis Assay Reagent (Essen Bioscience). Serial dilutions of each molecule were prepared in 384-well polystyrene plates (Nunc). Diluted drug was added to the assay plate using an Integra Viaflo pipette (Integra) mounted on an Integra Assist Plus Pipetting Robot (Integra). Assay plates were again covered with a Breathe-Easy sealing membrane and TOs were exposed to drugs for another 72 hours before imaging.
(§2) Prior to imaging, TOs were incubated with 4 μM Hoechst 33342 (Fisher Scientific) and 300 nM TO-PRO-3 Iodide (642/661) (Invitrogen) for 1.5-2 hours. Assay plates were imaged using an ImageXpress Micro Confocal (Molecular Devices) at 10× magnification so that ˜100-200 TOs were imaged per well. Images were acquired as 4×15 μm Z-stacks and the 2D projections were analyzed to assess cell viability. Confocal images were analyzed using the MetaXpress software (Molecular Devices) custom module editor feature to design an analysis module that identified TOs by clusters of Hoechst 33342 staining, individual cells by Hoechst 33342 staining, and dead/dying cells by either TO-PRO-3 or Caspase-3/7 staining. The result of this analysis module is a spreadsheet detailing the number of live and dead cells for every individual organoid.
(§3) The percentage of viable cells per organoid was calculated based on the image analysis described above. Organoids with fewer than three cells and larger than the top one percent by size were excluded from analysis. The mean viability for all organoids at a given drug concentration was used in dose-response curves to calculate AUC. AUC was calculated using the computeAUC function using settings for “actual” AUC of the R Package PharmacoGx (v1.17.1). Heatmaps of AUC values were generated using the Pheatmap package (v1.0.12) in R. Scatterplots of AUC values were generated using the ggplot2 package (v3.3.0) in R.
(§4) In this example, data for each therapy is presented as a histogram. […] Viability was determined by the systems and methods disclosed above.
(§5) Each tumor organoid line in these examples was cultured individually in wells of a tissue culture plate, as described above.
In this example, tissue culture wells containing a first lung cancer tumor organoid line were each exposed to one of the therapies listed above.

The test system of data set [2] is colon cancer tumor organoid line. The data set is described as above. Type of data set: cell-based, human. The following applies: caspase 3/7 readout, 10,000 nM dose. As to the method:
as §1, §2, §3, §4, §5
In this example, tissue culture wells containing a colon cancer tumor organoid line were each exposed to one of the therapies listed above.

The subject of data set [3] is first endometrial cancer tumor organoid line. The description is as above. How it is done: as §1, §2, §3, §4, §5
In this example, tissue culture wells containing a first endometrial cancer tumor organoid line were each exposed to one of the therapies listed above.

The subject of data set [4] is head and neck cancer tumor organoid line. The data set is described as above. The following applies: for viability at 10 µM: Homo sapiens, read-out: mean viability for all organoids in the plot; for organoids of the line that are resistant to the drug / organoids with 0% viability (susceptible to the drug) / organoids with 100% viability (resistant to the drug): caspase 3/7 readout, 10,000 nM dose. As to the method: as §1, §2, §3, §4, §5
In this example, tissue culture wells containing a head and neck cancer tumor organoid line were each exposed to one of the therapies listed above.

Data set [5] relates to gastric cancer tumor organoid line. Nature of the data set: cells. The following applies: for viability at 10 µM: Homo sapiens, read-out: mean viability for all organoids in the plot; for organoids of the line that are resistant to the drug / organoids with 0% viability (susceptible to the drug) / organoids with 100% viability (resistant to the drug): caspase 3/7 readout, 10,000 nM dose. As to the method: as §1, §2, §3, §4, §5
In this example, tissue culture wells containing a gastric cancer tumor organoid line were each exposed to one of the therapies listed above.

Data set [6] relates to second lung cancer tumor organoid line. Nature of the data set: high throughput tumor organoid drug screen, per-organoid viability histogram. The following applies: for viability at 10 µM: Homo sapiens, read-out: mean viability for all organoids in the plot. As to the method: as §1, §2, §3, §4, §5
In this example, tissue culture wells containing a second lung cancer tumor organoid line were each exposed to one of the therapies listed above.

Data set [7] has as its system second endometrial cancer tumor organoid line. The description is as above. The following applies: for viability at 10 µM: Homo sapiens, read-out: mean viability for all organoids in the plot; for organoids of the line that are resistant to the drug / organoids with 0% viability (susceptible to the drug) / organoids with 100% viability (resistant to the drug): caspase 3/7 readout, 10,000 nM dose. As to the method: as §1, §2, §3, §4, §5
In this example, tissue culture wells containing a second endometrial cancer tumor organoid line were each exposed to one of the therapies listed above.

The test system of data set [8] is colorectal cancer tumor organoid line. The description is as above. In kind it is cell-based, human. The following applies: caspase 3/7 readout, 10,000 nM dose. As to the method: as §1, §2, §3, §4, §5
In this example, tissue culture wells containing a colorectal cancer tumor organoid line were each exposed to one of the therapies listed above.

Where [9] appears, read: Homo sapiens, read-out: mean viability for all organoids in the plot.
Setting [10] is: caspase 3/7 readout, 10,000 nM dose.

As to `NC(=O)c1cccc2cn(-c3ccc([C@@H]4CCCNC4)cc3)nc12` [Niraparib], the viability at 10 µM in data set [1] was around 25%. Also, in data set [1] (caspase 3/7 readout), the “organoids of the line that are resistant to the drug” value is reported as “presence of a small proportion”, the “organoids with 0% viability (susceptible to the drug)” value (“organoids with 0% viability” for short) is recorded as “Approximately 80 organoids” and the “organoids with 100% viability (resistant to the drug)” value (shortened to “organoids with 100% viability”) is given as “Approximately 20 organoids”.

As to `O=c1[nH]cc(F)c(=O)[nH]1` [Fluorouracil], the viability at 10 µM in data set [2] (setting [9]) is around 25%. Also, in data set [2], the “organoids of the line that are resistant to the drug” value is on record as “general absence”, the “organoids with 0% viability” value was “Approximately 70 organoids” and the “organoids with 100% viability” value is “Approximately 10 organoids”.

With `O=C1[O][Pt]2([NH][C@@H]3CCCC[C@H]3[NH]2)[O]C1=O` [Oxaliplatin], in data set [3] (setting [10]), the “mean viability for all organoids in the plot” value (“mean viability” below) was “approximately 40%”, the “organoids of the line that are resistant to the drug” value is reported as “presence of organoids”, the “organoids with 0% viability” value is “Approximately 20 organoids” and the “organoids with 100% viability” value is listed as “Approximately 18 organoids”.

For `CO[C@@H](C)Cn1c(=O)n(C)c2cnc3ccc(-c4cncc(C(C)(C)O)c4)cc3c21` [LY3023414], in data set [4], the viability at 10 µM is around 15%, the “organoids of the line that are resistant to the drug” value was “general absence”, the “organoids with 0% viability” value is “Approximately 80 organoids” and the “organoids with 100% viability” value was “Approximately 5 organoids”.

For `CC(C)C[C@H](NC(=O)[C@H](Cc1ccccc1)NC(=O)c1cnccn1)B(O)O` [Bortezomib], in data set [5], the viability at 10 µM is around 15%, the “organoids of the line that are resistant to the drug” value is given as “general absence”, the “organoids with 0% viability” value was “Approximately 225 organoids” and the “organoids with 100% viability” value was “Approximately 15 organoids”.

Consider `Nc1ccn([C@@H]2O[C@H](CO)[C@@H](O)C2(F)F)c(=O)n1` [Gemcitabine], for which the viability at 10 µM in data set [1] and in data set [6] was around 35% throughout. The “organoids of the line that are resistant to the drug” value in data set [1] (caspase 3/7 readout) and in data set [6] (setting [10]) was “presence of a small proportion” each time. For the same compound, the “organoids with 100% viability” value was “Approximately 15 organoids” in data set [1] (caspase 3/7 readout) and “Approximately 10 organoids” in data set [6] (setting [10]). Besides, in data set [6] (setting [10]), the “organoids with 0% viability” value is “Approximately 30 organoids”.

As to `O=C(O)/C=C/c1ccc(-c2ccc(O)c(C34CC5CC(CC(C5)C3)C4)c2)cc1` [ST-1926, Adarotene], the viability at 10 µM in data set [3] (setting [9]) is around 30%. For the same compound, in data set [3] (setting [10]), the “organoids of the line that are resistant to the drug” value was “general absence”, the “organoids with 0% viability” value is recorded as “Approximately 45 organoids” and the “organoids with 100% viability” value is on record as “Approximately 10 organoids”. Also, in data set [7], the viability at 10 µM is around 40%, the “organoids of the line that are resistant to the drug” value was “presence of a small proportion”, the “organoids with 0% viability” value is listed as “Approximately 65 organoids” and the “organoids with 100% viability” value is recorded as “Approximately 40 organoids”.

For `CCCCc1nc2cc(/C=C/C(=O)NO)ccc2n1CCN(CC)CC` [Pracinostat], in data set [5], the viability at 10 µM was around 20%, the “organoids of the line that are resistant to the drug” value is reported as “general absence”, the “organoids with 0% viability” value is recorded as “Approximately 120 organoids” and the “organoids with 100% viability” value is “Approximately 10 organoids”.

As to `CC(=O)O/N=C1/C(=C2/C(=O)Nc3cc(Br)ccc32)Nc2ccccc21` [BIO-acetoxime], in data set [5], the “organoids of the line that are resistant to the drug” value is given as “general absence”, the “organoids with 0% viability” value is “Approximately 150 organoids” and the “organoids with 100% viability” value is “Approximately 20 organoids”.

On to `CC(=O)O[C@H]1C(=O)[C@@]2(C)[C@H]([C@H](OC(=O)c3ccccc3)[C@]3(O)C[C@H](OC(=O)[C@H](O)[C@@H](NC(=O)c4ccccc4)c4ccccc4)C(C)=C1C3(C)C)[C@]1(OC(C)=O)CO[C@@H]1C[C@@H]2O` [Paclitaxel], for which, in data set [4], the viability at 10 µM is around 40%, the “organoids of the line that are resistant to the drug” value is “presence of a small proportion”, the “organoids with 0% viability” value is given as “Approximately 65 organoids” and the “organoids with 100% viability” value is listed as “Approximately 35 organoids”.

For the compound `CCS(=O)(=O)Nc1ccc2c(c1)/C(=C(/Nc1ccc(CN3CCCCC3)cc1)c1ccccc1)C(=O)N2` [Hesperadin], in data set [7], the viability at 10 µM is around 20%, the “organoids with 0% viability” value is reported as “Approximately 100 organoids” and the “organoids with 100% viability” value is recorded as “Approximately 5 organoids”.

On to `COc1cccc(OCCCN)c1-c1cc(Nc2cnc(C#N)cn2)n[nH]1` [Prexasertib, Prexasertib HCl], for which, in data set [7], the viability at 10 µM was around 40%, the “organoids of the line that are resistant to the drug” value is listed as “presence of a small proportion”, the “organoids with 0% viability” value is given as “Approximately 80 organoids” and the “organoids with 100% viability” value is given as “Approximately 35 organoids”.

Turning to `CC(=O)Nc1cccc(-n2c(=O)n(C3CC3)c(=O)c3c(Nc4ccc(I)cc4F)n(C)c(=O)c(C)c32)c1` [Trametinib], the viability at 10 µM in data set [8] (setting [9]) was around 25%. Besides, in data set [8], the “organoids with 0% viability” value is “Approximately 50 organoids” and the “organoids with 100% viability” value is recorded as “Approximately 10 organoids”.

`CCc1c2c(nc3ccc(O)cc13)-c1cc3c(c(=O)n1C2)COC(=O)[C@]3(O)CC` [SN-38]: in data set [1] (caspase 3/7 readout), the “mean viability” value was “approximately 45%”, the “organoids of the line that are resistant to the drug” value is “presence of organoids”, the “organoids with 0% viability” value was “Approximately 20 organoids” and the “organoids with 100% viability” value is reported as “Approximately 20 organoids”. Moreover, in data set [6] (setting [10]), the “mean viability” value was “approximately 20%”, the “organoids of the line that are resistant to the drug” value is recorded as “general absence”, the “organoids with 0% viability” value is “Approximately 100 organoids” and the “organoids with 100% viability” value is “Approximately 5 organoids”.

With `N.N.[Cl][Pt][Cl]` [Cisplatin], in data set [3] (setting [10]), the “organoids of the line that are resistant to the drug” value is reported as “general absence”, the “organoids with 0% viability” value is reported as “Approximately 60 organoids” and the “organoids with 100% viability” value is “Approximately 5 organoids”.

Turning to `C[C@@]1(CO)[C@H](O)CC[C@@]2(C)[C@H]1CC[C@H]1C[C@@H]3C[C@@]12CC[C@]3(O)CO` [Aphidicolin], the “organoids of the line that are resistant to the drug” value in data set [1] (caspase 3/7 readout) is “presence of organoids”. Further, the viability at 10 µM in data set [6] is around 30%. Also, in data set [6] (setting [10]), the “organoids of the line that are resistant to the drug” value is reported as “presence of a small proportion”, the “organoids with 0% viability” value is given as “Approximately 50 organoids” and the “organoids with 100% viability” value was “Approximately 15 organoids”.

(Values after patent publication US11415571B2, “Large scale organoid analysis” (Tempus Labs, Inc., priority 2019, dated 2022).)
